According to patent publication US7125572B2, “Tyrosinase inhibitor extract” (Kaoder Industry Company, Ltd., priority 2004, dated 2006):

Tested on: tyrosinase
Assay: Determination of tyrosinase inhibitory effect (L-DOPA substrate, absorbance at 475 nm)
Settings: comparison with arbutin, determined in a way described in Example 4
Procedure: The activity of tyrosinase was determined at the wavelength of 475 nm and calculated from the decrease of the absorbance.
35 μl of the tyrosinase inhibitor extract of Example 1 and 35 μl of 80% propylene glycol were used as the test and control samples. The inhibition percent of the tyrosinase activity was calculated by the equation: Inhibition percentage (%) of the tyrosine activity=[1−(Absorbance of experiment sample)/(Absorbance of control sample)]×100%. The DOPA and tyrosinase solution (1000 units/ml in 16.7 mM potassium phosphate butter) used in the following experiments were purchased from Sigma Corp., USA.
15.1 of tyrosinase solutions was added to each (35 μl) of six samples of tyrosinase inhibitor extract of Example 1. The resultant solutions were maintained at 25. for 0, 1, 2, 3, 4, 5, 6 hours, respectively. 450.1 of L-DOPA substrate was added to each of the solutions.
15.1 of tyrosinase solutions was added to each (35 μl) of three samples of tyrosinase inhibitor extract of Example 1. The resultant solutions were maintained at 25., 37. and 50. for 1 hour, respectively. 450.1 of L-DOPA substrate was added to each of the solutions.
15.1 of tyrosinase solutions was added to each (35 μl) of five samples of tyrosinase inhibitor extract of Example 1. The resultant solutions were maintained at pH 4, 5, 6, 7 and 8 for 1 hour, respectively. […]

OC[C@H]1O[C@@H](Oc2ccc(O)cc2)[C@H](O)[C@@H](O)[C@@H]1O [Arbutin]
% inhibitory Activity: 32+−0.0%
